Source: patent US20020169296A1, “Linked, sequence-specific DNA-binding molecules” (priority 2000, published 2002)
Where “and” joins values, the source holds several entries; their conditions need not be identical. Equal values may be shown once. Read-outs that look alike come from different tables or passages of the source.

How the values were obtained:
[1] = test system: Drosophila histone SAR probe (clustered/long AT-tracts); experiment: DNase I footprinting on SAR probe; type: binding
Protocol: Since satellite I is composed of exclusively A and T bases, it constitutes an ‘ideal’ binding substrate for oligopyrroles. But to obtain SAR-specific compounds, molecules are required that preferably bind its clustered, irregularly spaced AT-tracts. Binding studies were carried out with P9, P7 and P13 on the Drosophila histone SAR probe which contains the following clustered/long AT-tracts (W15N3W17N5W16N13W8NW6 where N is any base, see also FIG. 3D). […] The ratio of these two affinities is used (KappW9/KappSAR) as an empirical measure of SAR specificity. For all compounds tested thus far, this value (referred to as SAR preference factor) was around unity (Table 3).
(§1) Fragments were purified on low-melt agarose gels and then cloned into a modified pSP64 vector, cut by BamHI and BglII. End-labeling was carried out following digestion with HindIII and a fill-in reaction with Klenow DNA polymerase. The labeled plasmid was cut with PvuII and the target fragments purified from low-melting agarose gels. The 657 bp EcoRl/Hinf1 fragment of the Drosophila histone SAR was cloned into the SmaI site of the modified pSP64 plasmid. This SAR probe was end-labeled following digestion with EcoRl, then cut with ClaI and the resulting 347 bp fragment purified from low-melting agarose gels.
(§2) All reactions were performed in a total volume of 40 μl. A polyamide stock solution or buffer (for reference lanes) was added to an assay buffer containing 20 kcpm radiolabeled DNA, affording final concentrations of 10 mM Tris-HCl (pH 7.4), 10 mM KCl, 10 mM MgCl, 5 mM CaCl2, 0.5 mM EDTA, 0.5 mM EGTA, 1 mM DTT and 0.1% digitonine. The solutions were allowed to equilibrate for at least 2 h at room temperature. Footprinting reactions were initiated by the addition of 2 μl of a DNase stock solution (containing −100 pg DNase I in buffer) and allowed to proceed for 2 min at room temperature. The reactions were stopped by addition of 10 μl of a solution containing 1.25 M NaCl, 100 mM EDTA. Next, 5 μl of a 1% SDS solution was added, followed by 2 μl of a solution containing 1 μg poly(dA-dT), 1 μg salmon sperm DNA and 10 μg glycogen and the DNA was ethanol precipitated (20 min at −20° C.). The reactions were resuspended in 4 μl of 80% formamide loading buffer, denatured 10 min at 85° C., cooled on ice and electrophoresed on 8% polyacrylamide denaturing gels (5% cross-link, 8 M urea) at 30 W for 1 h. The gels were dried and exposed o/n at −70° C.

[2] = test system: W9 probe (isolated 9 bp AT-tract); experiment: DNase I footprinting on W9 probe; type: binding
Description: To target AT-tracts, the principal component of satellite I, III and SARs), a pyrrole pentamer was synthesized by facile solid phase chemistry in which five pyrrole (Py) aromatic amino acid rings are linked covalently by amide bonds (Baird and Dervan, 1996). The resulting compound, termed P7 had the sequence Py-Py-Py-Py-Py-β-Dp (where β=β-alanine and Dp=dimethylaminopropylamide). This compound is expected to bind 7 successive A or T base pairs (Ws) according to the n+1 rule where n is the number of amides (Youngquist and Dervan, 1985). The DNA binding properties of P7 were assessed by DNAse I footprinting experiments using a synthetic probe containing isolated, repeated AT-tracts of 9 Ws (W9, FIG. 2A). By visual inspection, the apparent dissociation constant (Kapp) for P7 was estimated to be approximately 80 nM (Table 3).
were hybridized to obtain the W9 probe, oligomerized by ligation and digested with BamHl and BglII to obtain different tandem repeats. The following oligonucleotides were prepared identically:
as §1, §2

[3] = test system: Drosophila satellite III chromatin (topoisomerase II cleavage); experiment: Topoisomerase II cleavage in satellite III of Kc nuclei in Xenopus egg extracts with VM26; type: biochemical; settings: for concentration giving massive cleavage stimulation: P31 at 500 nM comparable to P9 at 62 nM (lowest tested)
satellite III chromatin = experiment: Restriction enzyme (HaeIII) cleavage within satellite III chromatin; type: biochemical, Drosophila; settings: data not shown
Description: Satellite III repeats contain near the topoisomerase II cleavage site a HaeIII restriction sequence. […] We made a similar observation using P9 (data not shown).

[4] = test system: sperm nuclei (condensation to chromatids); experiment: Chromosome condensation of sperm nuclei in mitotic Xenopus egg extracts; type: biochemical
Description: Mitotic Xenopus egg extracts convert added nuclei and sperm to chromatids in vitro. This chromosome condensation process requires topoisomerase II (Adachi et al., 1991), the protein complex condensin (Hirano T, 1997) and presumably other unidentified activities present in the mitotic extract. First, chromatin is remodeled and nuclei then proceed quite synchronously through a number of morphologically distinguishable steps (Hirano and Mitchison, 1991). Remodeling is morphological manifested by swelling of the nuclei which involves exchange of basic sperm-specific proteins for H2A/H2B and the incorporation of histone B4 (Dimitrov S, 1994).
Pyrrole drugs were added to the extract together with the sperm or after the remodeling step (at 10 minutes) and the extent of condensation was determined after 120 min. At this time point, the conversion of all sperm nuclei to clusters of individual chromatids is complete in the absence of drug (FIG. 8A, control). […] Addition of this compound at 125 to 250 nM (indicated) arrested this process at the so-called early ‘ruffle’ stage (FIG. 8A). These structures retain the swollen sperm shape, but they have peripheral blebs (ruffles) and a slightly heterogeneous interior. At this drug concentration, no chromatids are seen. If the concentration of Lex10 is raised to 500 nM, we observed an even earlier arrest as evidenced by the accumulation of swollen, remodeled sperm-shaped nuclei containing a homogeneous interior and smooth periphery. […] The monomer P7 was also tested but we observed no inhibition with the pyrrole pentamer up to the highest concentration (8 μM) tested. Condensation was inhibited at a ruffle stage with a P9 concentration of 2 μM (not shown).
In the experiment shown in FIG. 8B, Lex10 was added to the extract at a final concentration of 1 μM (several fold above the minimum inhibitory concentration) after which competitor oligonucleotides were added at different stages. Three different oligonucleotides of similar size were used: the SAR oligo contains two large clustered AT-tracts of the SAR probe (W17N5W15), the W9 oligo has a single AT tract of 9 base pairs and the GAGAA oligo harbors 5 tandem GAGAA repeats.
Topoisomerase II inhibition and chromosome assembly were as described previously (Girard et al., 1998, Strick and Laemmli, 1995). Affinity cleavage experiments was performed as described elsewhere (Turner et al., 1997).

[5] = test system: GAGA factor (GAF) function; experiment: Feeding to developing Drosophila melanogaster of brown-dominant genotype; type: in vivo; settings: fed to developing flies
[6] = test system: CACAA repeats (Brown I probe); experiment: DNase I footprinting on CACAA repeats; type: binding
Description: A drawback of this binding model, as opposed to conventional 2:1 drug to DNA complexes, is that P31 is expected to bind degenerate GC and CG base pairs, albeit with different affinity. The consensus sequence can thus be defined as […], where S stands for a G or C and W for A or T. To evaluate binding of P31 to CACAA repeats, we used a second probe that contains two of these repeats as well as five tandem GAGAA repeats. […] Again, it is observed than this molecule binds as a 1:1 drug to DNA complex in an orientation as indicated by arrowheads (FIG. 5A). We propose that special structural features of AT-tracts and GAGAA repeats might favor 1:1 DNA to drug complexes (see Discussion).
All reactions were performed in a total volume of 40 μl. A polyamide stock solution or buffer (for reference lanes) was added to an assay buffer containing 20 kcpm radiolabeled DNA, affording final concentrations of 10 mM Tris-HCl (pH 7.4), 10 mM KCl, 10 mM MgCl, 5 mM CaCl2, 0.5 mM EDTA, 0.5 mM EGTA, 1 mM DTT and 0.1% digitonine. The solutions were allowed to equilibrate for at least 2 h at room temperature. Footprinting reactions were initiated by the addition of 2 μl of a DNase stock solution (containing −100 pg DNase I in buffer) and allowed to proceed for 2 min at room temperature. The reactions were stopped by addition of 10 μl of a solution containing 1.25 M NaCl, 100 mM EDTA. […]

[7] = test system: GAGA factor (GAF) binding site from the Ubx promoter (GAF31 probe); experiment: DNase I footprinting on Ubx GAF binding site
Description: Panel A: DNAse I footprinting experiment with P31 and affinity cleavage with P31E are shown on GAF31 and the Brown I probes. The GAF31 and Brown I probes contains a (AAGAG)2 motif and GAGA factor (GAF) binding site from the Ubx promoter (Biggin et al., 1988). […] The Brown I oligo (a tandem repeat) includes an (AAGAG)5 binding site and a degenerate P31 binding site (AACAC)2 as indicated. P31 concentrations used (nM) are indicated. […] Binding orientations of P31E on these probes are indicated by arrowheads on the brackets pointing towards the N-terminus of the molecule. The letter G refers the G nucleotide cleavage reaction. Panel B: DNAse I footprinting experiment with purified GAGA factor (GAF) on the GAF31 probe. Note that GAF binds both the (AAGAG)2 motif and the binding site from the Ubx promoter.
A footprint experiment was therefore carried out with this protein. The DNA probe (GAF31) used for this purpose contains besides the (AAGAG)2 motif (the target of P31) a typical promoter proximal GAF binding site derived from the Ubx gene (Biggin et al., 1988). This Ubx site contains the pentameric consensus sequence […] of GAF (Omichinski et al., 1997).
(§3) All reactions were performed in a total volume of 40 μl. […]

[8] = biological target: two GAGAA repeats (GAF31 probe); experiment: DNase I footprinting on GAGAA repeats; settings: read-out: apparent binding constant
Description: In the framework of a search for molecular tools to study PEV, polyamide that targets the abundant satellite V composed of GAGAA repeats (Lohe et al., 1993) was synthesised. Designing molecules that would bind to this repeat motif represented a challenge since with current knowledge, targeting of sequences containing 5′-GNG-3′ or 5′-GA-3′ with drugs composed of pyrrole and imidazole is difficult. However, successful targeting to sequences containing 5′-GTG-3′ was previously achieved using an Im-β-Im motif where β-alanine replaces the function of pyrrole (Turner et al., 1998). Since β-alanine, like pyrroles, is degenerate for A.T and T.A base pairs, we designed a compound based on these observations, to recognize a sequence composed of two tandem GAGAA repeats by systematic placement of β-alanine at the N-terminal neighbor of imidazole. The binding affinity and specificity of this compound, termed P31 (=Im-β-Im-Py-β-Im-β-Im-β-Dp), were evaluated by DNAse I footprinting. For this purpose, two different probes were examined, both containing GAGAA repeats. […] The apparent binding constant of P31 for this sequence was estimated at 0.25 nM. At higher concentrations, protection of two mismatch binding sites was observed. One of these sites contains an AAGTG motif (FIG. 5A).
GAF31 is composed of the oligonucleotides:
as §3

Row | Structure (SMILES) | Ratio (KappW9/KappSAR, SAR preference factor) [1] | Kd ([1]; apparent dissociation constant, SAR probe, read-out: Kdapp SAR) | SAR specificity factor after tagging with fluorescent label ([1]; value of the tagged derivative) | better affinity for W9 than P7 [2] | Kd ([2]; apparent dissociation constant, W9 probe, read-out: Kdapp W9) | concentration of maximal stimulation of topoisomerase II cleavage [3] | lower concentration for opening satellite III than P31 [3] | stimulation of topoisomerase II cleavage in satellite III [3] | concentration giving massive cleavage stimulation [3] | restriction enzyme cleavage within satellite III (satellite III chromatin) | concentration inhibiting chromosome condensation (block at ruffle stage) ([4]; 120 min) | reversal of condensation inhibition by competitor oligonucleotide ([4]; P9 2 μM, 500 ng of SAR-, W9- or GAGAA-oligo) | effect on GAGA factor function in flies [5] | affinity for CACAA repeats relative to GAGAA repeats [6] | binding to Ubx GAF binding site [7] | stimulation of topoisomerase II cleavage in satellite III ([3]; up to a concentration of 200 nM) | Kd [8]
1 | CN(C)CCCNC(=O)CCNC(=O)c1cc(NC(=O)c2cc(NC(=O)c3cc(NC(=O)CCNC(=O)c4cc(NC(=O)c5cc(NC(=O)c6cccn6C)cn5C)cn4C)cn3C)cn2C)cn1C [Compound P9, PyPyPy-β-PyPyPy-β-Dp] | 1.4 | 0.55 nM | 3 | 100 fold | ~0.75 nM and 0.75 nM | 500 nM and 500 to 1000 nM | roughly 10 fold | massively stimulated | 62 nM | facilitated cleavage | 2 µM | did not rescue chromatid assembly | – | – | – | – | –
2 | CN(C)CCCNC(=O)CCNC(=O)c1nc(NC(=O)CCNC(=O)c2nc(NC(=O)CCNC(=O)c3cc(NC(=O)c4nc(NC(=O)CCNC(=O)c5nccn5C)cn4C)cn3C)cn2C)cn1C [Compound P31, Im-β-Im-Py-β-Im-β-Im-β-Dp] | – | – | – | – | – | – | – | – | 500 nM | – | – | – | interferes with the function of the GAGA factor (GAF) | approximately five fold lower affinity | does not bind | no significant reinforcement of the pattern | 0.25 nM
